{"source": "patent US9364497B2", "about": "“Treatment of cognitive disorders” (Isis Innovation Limited, priority 2010, dated 2016)", "origin": "cited, not measured here", "key": {"[1]": {"system": "normal participants with baseline tHcy levels >13 μmol/L", "settings": "0.8 mg/d for three years"}, "[2]": {"system": "subjects with mild cognitive impairment", "settings": "MCI"}, "[3]": {"system": "mild cognitive impairment", "settings": "MCI; over four years"}}}
{"smiles": "Nc1nc2ncc(CNc3ccc(C(=O)N[C@@H](CCC(=O)O)C(=O)O)cc3)nc2c(=O)[nH]1", "note": "[folic acid]", "values": [{"measurement": "effect on cognitive tests", "setting": "[1]", "result": "beneficial effect on several cognitive tests"}]}
{"smiles": "COc1ccc2c3c1O[C@H]1C[C@@H](O)C=C[C@@]31CCN(C)C2", "note": "[galantamine]", "values": [{"measurement": "deaths in treatment groups versus placebo", "setting": "[2]", "result": "significantly greater number of deaths"}]}
{"smiles": "CCN(C)C(=O)Oc1cccc([C@H](C)N(C)C)c1", "note": "[rivastigmine]", "values": [{"measurement": "benefit on cognitive function", "setting": "[3]", "result": "no significant benefit"}, {"measurement": "benefit on the progression rate to Alzheimer's Disease", "setting": "[3]", "result": "no significant benefit"}]}
